{"source": "patent US7411076B2", "about": "“Coumarin derivative” (Institute of Medicinal Molecular Design, Inc., priority 2002, dated 2008)", "data": [{"system": "Jurkat cells", "test": "Jurkat cell proliferation, compound alone or in combination with bleomycin, living cells counted by the MTS method", "format": "cell-based", "conditions": "Jurkat cells, combined with bleomycin 5 μg/ml or 10 μg/ml, 36 hours, survival rate vs DMSO control", "protocol": "(§1) By using these compounds, effects on proliferation of Jurkat cells by sole administration and inhibitory effects on cell proliferation by administration in combination with bleomycin were examined. Materials and methods are as follows. Jurkat cells obtained from Dainippon Pharmaceutical Co. Ltd. were inoculated at about 10,000 cells per well in a 96 well culture plate, and incubated in 10% bovine fetal serum (Irvine Scientific) supplemented with RPMI1640(ICN) medium in 5% CO2 incubator at 37° C. […] 36 hours after the incubation, the number of living cells was counted by the MTS method.\n(§2) More specifically, 20 μl of CellTiter96™ AQueous One Solution (Promega) was added per one well, and after the cells were incubated for additional one hour, an absorbance at 490 nm was measured by using a microplate reader. The same culture added with DMSO as a solvent at final concentration of 0.25% was used as a control. The number of cells in the control was considered as 100% survival rate, and for each compound, survival rates by sole administration or a combined administration were calculated. […] In the table, ++ indicates observation of remarkable enhancement, + indicates moderated enhancement, and ± indicates weak enhancement.", "values": [{"molecule": "COc1ccccc1C(=O)Nc1cc2ccc(O)cc2oc1=O", "note": "[Compound 15, N-(7-hydroxy-2-oxo-2H-1-benzopyran-3-yl)-2-methoxybenzamide]", "Activity (enhancement of the inhibitory effect of bleomycin on cell proliferation)": "±"}, {"molecule": "O=C(Nc1cc2ccc(O)cc2oc1=O)c1cccc(Cl)c1", "note": "[Compound 3, 3-chloro-N-(7-hydroxy-2-oxo-2H-1-benzopyran-3-yl)benzamide]", "Activity (enhancement of the inhibitory effect of bleomycin on cell proliferation)": "+"}, {"molecule": "O=C(Nc1cc2ccc(O)cc2oc1=O)c1ccc2ccccc2c1", "note": "[Compound 24, N-(7-hydroxy-2-oxo-2H-1-benzopyran-3-yl)-2-naphthalenecarboxamide]", "Activity (enhancement of the inhibitory effect of bleomycin on cell proliferation)": "±"}, {"molecule": "O=C(Nc1cc2ccc(O)cc2oc1=O)c1ccc(-c2ccccc2)cc1", "note": "[Compound 14, N-(7-hydroxy-2-oxo-2H-1-benzopyran-3-yl)-[1,1′-biphenyl]-4-carboxamide]", "Activity (enhancement of the inhibitory effect of bleomycin on cell proliferation)": "++"}, {"molecule": "O=C(Cc1ccccc1)Nc1cc2ccc(O)cc2oc1=O", "note": "[Compound 30, N-(7-hydroxy-2-oxo-2H-1-benzopyran-3-yl)benzeneacetamide]", "Activity (enhancement of the inhibitory effect of bleomycin on cell proliferation)": "+"}, {"molecule": "O=C(Nc1cc2ccc(O)cc2oc1=O)c1cccnc1Cl", "note": "[Compound 27, 2-chloro-N-(7-hydroxy-2-oxo-2H-1-benzopyran-3-yl)-3-pyridinecarboxamide]", "Activity (enhancement of the inhibitory effect of bleomycin on cell proliferation)": "±"}, {"molecule": "O=C(Nc1cc2ccc(O)cc2oc1=O)c1ccccc1", "note": "[Compound 1, N-(7-hydroxy-2-oxo-2H-1-benzopyran-3-yl)benzamide]", "Activity (enhancement of the inhibitory effect of bleomycin on cell proliferation)": "±"}, {"molecule": "O=C(Nc1cc2ccc(O)cc2oc1=O)c1cccc(Br)c1", "note": "[Compound 4, 3-bromo-N-(7-hydroxy-2-oxo-2H-1-benzopyran-3-yl)benzamide]", "Activity (enhancement of the inhibitory effect of bleomycin on cell proliferation)": "+"}, {"molecule": "O=C(Nc1cc2ccc(O)cc2oc1=O)c1cccs1", "note": "[Compound 26, N-(7-hydroxy-2-oxo-2H-1-benzopyran-3-yl)-2-thiophenecarboxamide]", "Activity (enhancement of the inhibitory effect of bleomycin on cell proliferation)": "±"}, {"molecule": "COc1cccc(C(=O)Nc2cc3ccc(O)cc3oc2=O)c1", "note": "[Compound 16, N-(7-hydroxy-2-oxo-2H-1-benzopyran-3-yl)-3-methoxybenzamide]", "Activity (enhancement of the inhibitory effect of bleomycin on cell proliferation)": "±"}, {"molecule": "O=C(Nc1cc2ccc(O)cc2oc1=O)c1cccc2ccccc12", "note": "[Compound 23, N-(7-hydroxy-2-oxo-2H-1-benzopyran-3-yl)-1-naphthalenecarboxamide]", "Activity (enhancement of the inhibitory effect of bleomycin on cell proliferation)": "+"}, {"molecule": "O=C(Nc1cc2ccc(O)cc2oc1=O)c1ccc2c(c1)OCO2", "note": "[Compound 28, N-(7-hydroxy-2-oxo-2H-1-benzopyran-3-yl)-1,3-benzodioxole-5-carboxamide]", "Activity (enhancement of the inhibitory effect of bleomycin on cell proliferation)": "±"}, {"molecule": "Cc1ccccc1C(=O)Nc1cc2ccc(O)cc2oc1=O", "note": "[Compound 8, N-(7-hydroxy-2-oxo-2H-1-benzopyran-3-yl)-2-methylbenzamide]", "Activity (enhancement of the inhibitory effect of bleomycin on cell proliferation)": "+"}, {"molecule": "O=C(Nc1cc2ccc(O)cc2oc1=O)c1ccc(C(F)(F)F)cc1", "note": "[Compound 13, N-(7-hydroxy-2-oxo-2H-1-benzopyran-3-yl)-4-(trifluoromethyl)benzamide]", "Activity (enhancement of the inhibitory effect of bleomycin on cell proliferation)": "+"}, {"molecule": "O=C(Nc1cc2ccc(O)cc2oc1=O)c1ccc(Cl)cc1", "note": "[Compound 5, 4-chloro-N-(7-hydroxy-2-oxo-2H-1-benzopyran-3-yl)benzamide]", "Activity (enhancement of the inhibitory effect of bleomycin on cell proliferation)": "±"}, {"molecule": "CC(C)(C)C(=O)Nc1cc2ccc(O)cc2oc1=O", "note": "[Compound 29, N-(7-hydroxy-2-oxo-2H-1-benzopyran-3-yl)-2,2-dimethylpropanamide]", "Activity (enhancement of the inhibitory effect of bleomycin on cell proliferation)": "±"}, {"molecule": "O=C(Nc1cc2ccc(O)cc2oc1=O)c1ccccc1Cl", "note": "[Compound 2, 2-chloro-N-(7-hydroxy-2-oxo-2H-1-benzopyran-3-yl)benzamide]", "Activity (enhancement of the inhibitory effect of bleomycin on cell proliferation)": "+"}, {"molecule": "O=C(Nc1cc2ccc(O)cc2oc1=O)c1ccco1", "note": "[Compound 25, N-(7-hydroxy-2-oxo-2H-1-benzopyran-3-yl)-2-furancarboxamide]", "Activity (enhancement of the inhibitory effect of bleomycin on cell proliferation)": "±"}, {"molecule": "N#Cc1ccc(C(=O)Nc2cc3ccc(O)cc3oc2=O)cc1", "note": "[Compound 22, 4-cyano-N-(7-hydroxy-2-oxo-2H-1-benzopyran-3-yl)benzamide]", "Activity (enhancement of the inhibitory effect of bleomycin on cell proliferation)": "+"}, {"molecule": "O=C(Nc1cc2ccc(O)cc2oc1=O)c1ccc([N+](=O)[O-])cc1", "note": "[Compound 20, N-(7-hydroxy-2-oxo-2H-1-benzopyran-3-yl)-4-nitrobenzamide]", "Activity (enhancement of the inhibitory effect of bleomycin on cell proliferation)": "±"}, {"molecule": "O=C(Nc1cc2ccc(O)cc2oc1=O)c1ccc(F)cc1", "note": "[Compound 6, 4-fluoro-N-(7-hydroxy-2-oxo-2H-1-benzopyran-3-yl)benzamide]", "Activity (enhancement of the inhibitory effect of bleomycin on cell proliferation)": "±"}, {"molecule": "COC(=O)c1ccc(C(=O)Nc2cc3ccc(O)cc3oc2=O)cc1", "note": "[Compound 21, 4-[[N-(7-hydroxy-2-oxo-2H-1-benzopyran-3-yl)amino]carbonyl]benzoic acid methyl ester]", "Activity (enhancement of the inhibitory effect of bleomycin on cell proliferation)": "±"}]}, {"system": "Jurkat cells", "test": "Jurkat cell proliferation, compound alone or in combination with bleomycin, living cells counted by the MTS method", "format": "cell-based", "conditions": "bleomycin alone at 5 μg/ml or 10 μg/ml, 36 hours, DMSO control = 100% survival", "protocol": "as §1, §2", "units": {"decrease in the survival rates of the Jurkat cells": "%"}, "values": [{"molecule": "bleomycin [reference compound]", "decrease in the survival rates of the Jurkat cells": "5 to 10"}]}]}
